According to patent US20130287854A1, “COMPOSITIONS AND USES” (VECTURA LIMITED, priority 2010, published 2013):

Columns and labels:
[1] = test system: Parkinson's disease patients; assay: Therapeutic effect of apomorphine by pulmonary inhalation in a clinical trial; type: in vivo, human
[2] = human, in vivo
[3] = test system: patients with PD; conditions: subcutaneous, cited from earlier work
[4] = cited from earlier work
[5] = test system: Parkinson's disease patients; conditions: subcutaneous injection, marketing literature; cited from earlier work
[6] = test system: patients with PD; conditions: subcutaneous, 11/16 patients; cited from earlier work
[7] = test system: male erectile dysfunction patients; assay: VR004/008 Phase IIb study, male erectile dysfunction; type: in vivo, human; conditions: a couple of patients receiving 310 μg and 430 μg doses
Experimental: In contrast, in a recent clinical study relating to male erectile dysfunction (VR004/008 Phase IIb study), the majority of patients reported that the duration of action lasted between 2 to 10 minutes, although a couple of patients receiving 310 μg and 430 μg doses did report that the duration of action lasted over 30 minutes.=

## CN1CCc2cccc3c2[C@H]1Cc1ccc(O)c(O)c1-3 [apomorphine]
[1]; majority of patients, after inhaling
  onset of the therapeutic effect (conversion): ≤ 10 min
[1]; pulmonary inhalation, in a clinical trial
  mean duration of the therapeutic effect: 75 min
[1]; some patients, pulmonary inhalation
  conversion from the off to the on state, quickest reported: 2 min
[2]
  Tmax, fastest observed: 1 min
[3]; 15 of 20 patients
  patients reporting an increased dyskinesia severity compared to baseline: 75%
[3]; active group, FIG. 14
  patients reporting signs of dyskinesia: 35%
[3]; active group
  mean daily duration of on state with non-troublesome dyskinesia and troublesome dyskinesias: 0.24 h
[3]; active treatment group
  change in the mean daily period asleep from the baseline: 0.10 h
  mean time to reach therapeutic effect: 22.2 min
[4]; dose range of 2 to 8 mg, single subcutaneous injection into the abdominal wall, idiopathic Parkinson's disease
  dose linearity of pharmacokinetics: linear pharmacokinetics
[4]; nasal administration
  Tmax: approximately 15 minutes
[5]
  patients with improved movement within 20 minutes post dose: 90%
[6]
  patients reporting incidences of dyskinesia: 69%
[7]
  duration of action: over 30 minutes
